Experiments:
[1] = system: human stem cell-derived motor neurons derived from a healthy patient; assay: CPA survival assay, wild-type human stem cell-derived motor neurons; settings: CPA 33 μM; at 1.2 μM (PF-6260933), 2.4 μM (GNE-495), 0.6 μM (URMC-099)
[2] = Safety of long-term administration in drinking water; assay type: in vivo; settings: 10 mg/kg, 60 days from P30
From the text: […]. Treatment began at P30 and continued for 60 days.

SMILES	motor neuron survival restored, % of vehicle controls (maximum) [1] [%]	body mass vs vehicle-treated controls [2]	survival, hindlimb strength, gross pathology [2]
CN1CCN(Cc2ccc(-c3cnc4[nH]cc(-c5ccc6[nH]ccc6c5)c4c3)cc2)CC1 [Compound 1, 3-(1H-Indol-5-yl)-5-(4-((4-methylpiperazin-1-yl)methyl)phenyl)-1H-pyrrolo[2,3-b]pyridine, reference compound]	90		
OCCN1CCN(Cc2ccc(-c3cnc4[nH]cc(-c5cccc(Cl)c5)c4c3)cc2)CC1 [Compound 12k, 2-(4-(4-(3-(3-Chlorophenyl)-1H-pyrrolo[2,3-b]pyridin-5-yl)benzyl)piperazin-1-yl)ethan-1-ol]		mild increase in body mass	No differences in survival, hindlimb strength, or gross pathology
